Where “and” joins values, the source holds several entries; their conditions need not be identical. Equal entries are not always repeated. Numbered stars: 1 amine (or outer) side, 2 acyl side, 3 side chain; on linkers, the order of the positions; unused ones are H or OH. Bridge positions count the residues as written; N and C are the ends. Square brackets hold non-standard residues; d marks the D form. Peptide text beside a SMILES is read from it. * marks the point of attachment. ξ: configuration not given here. Orn(4R-OH,5R-OCH2CH2NMe3+) = C[N+](C)(C)CCO[C@@H](N[*:3])[C@H](O)C[C@H](N[*:1])C(=O)[*:2]; pTerphenylCO(4''-OnC5H11) = CCCCCOc1ccc(-c2ccc(-c3ccc(C(=O)*)cc3)cc2)cc1; hTyr(3S-OH,4S-OH) = N[C@H](C(=O)O)[C@H](O)[C@@H](O)c1ccc(O)cc1; X1 = C[C@H]1CN([*:1])C(C(=O)[*:2])C1O; Hyp = O=C(O)[C@@H]1C[C@@H](O)CN1; ξT = CC(O)C(N)C(=O)O
Assays:
[1] = Clinical pharmacokinetics in healthy adults (Phase 1); format: in vivo, human; conditions: for average 24 h AUC (free drug) over a 7 day period / free drug AUC0-168: human
From the text: The in vitro activity of CD101 was previously evaluated as part of the SENTRY international surveillance program using CLSI broth microdilution methodology (M38-A2, M27-A3; Pfaller, et al 2017). […] These susceptibility data were then compared graphically to CD101 plasma concentrations from studies in healthy adults, adjusted for plasma protein binding. Nonclinical efficacy in a murine model of Pneumocystis pneumonia were also considered to evaluate CD101 doses for clinical investigation of antifungal prophylaxis.

[2] = tested on: Candida albicans ATCC SC5314; experiment: MIC used for free drug plasma concentration over MIC, candidiasis model; format: cell-based
[3] = tested on: C. albicans; experiment: Neutropenic murine disseminated candidiasis model, PK/PD target determination; format: in vivo, Candida albicans
Protocol: Infection model. A neutropenic, murine, disseminated candidiasis model was used for the treatment studies. The mice were rendered neutropenic (polymorphonuclear cell count, <100/mm3) by injecting 150 mg/kg of cyclophosphamide (Mead Johnson Pharmaceuticals, Evansville, IN) subcutaneously 4 days before infection, 100 mg/kg of cyclophosphamide 1 day before infection, and additional cyclophosphamide doses (100 mg/kg) on Day 2 and Day 4 after infection to ensure neutropenia throughout the 168 h (7 d) study period. Three mice were included in each treatment and control group.
The organisms were subcultured on SDA plates 24 h prior to infection. The inoculum was prepared by placing 3 to 5 colonies into 5 ml of sterile pyrogen-free 0.15 M NaCl warmed to 35° C. The final inoculum was adjusted to a 0.6 transmittance at 530 nm. The fungal count of the inoculum determined by viable counts on SDA was 6.1±0.2 log10 CFU/ml.
Disseminated infection with the Candida strains was achieved by injection of 0.1 ml of the inoculum via the lateral tail vein 2 h prior to the start of antifungal therapy. At the end of the study period, the animals were sacrificed by CO2 asphyxiation. The kidneys of each mouse were aseptically removed and placed in 0.15 M NaCl at 4° C. The kidneys were homogenized and serially diluted 1:10, and the aliquots were plated onto SDA for viable fungal colony counts after incubation for 24 h at 35° C. The lower limit of detection was 100 CFU/ml. The results are expressed as the mean CFU/kidney for three mice.
Treatment efficacy and pharmacodynamic target determination of CD101. Neutropenic mice were infected with one of 10 Candida strains as described above. […] Five dose levels that varied from 0.25 to 64 mg/kg were administered once in a 0.2-ml volume by IP route for the 168 h study period. Due to enhanced effect against single isolate, additional studies at 0.0156 and 0.0625 mg/kg was examined for C. glabrata 5592. Groups of three mice were used for each dosing regimen and control group. At the end of the treatment period (168 h), the mice were euthanized, and their kidneys were immediately processed for CFU determination as described above.
Data analysis. A sigmoid dose-effect (Hill) model was used to measure the in vivo potency of CD101. The efficacy endpoints included the dose level required to produce a 24 h net static effect (no change in organism burden compared to that at the start of therapy) and the dose required to achieve a 1-log10 reduction in colony counts (relative to the burden at the start of therapy), when achieved. The maximum response (Emax) was measured as the difference in the number of CFU/kidney relative to that of the untreated control animals. The doses associated with the stasis and 1-log10 endpoint for each strain was calculated using the equation: log10 D=[log10 (E/(Emax−E))/N]+log10 ED50, where D is the drug dose, E is the control growth in untreated animals, Emax is the maximal effect, Nis the slope of the dose-response relationship, and ED50 is the dose needed to achieve 50% of the maximal effect. The associated AUC/MIC targets were then calculated for each strain. […] The calculations were performed using both total and free drug concentrations. The coefficient of determination (R^2) was used to estimate the variance that might be due to regression with the PK/PD index. Kruskal-Wallis one-way analysis of variance (ANOVA) was used to determine if the differences in PK/PD targets were significant between the species.

[4] = Median of 4 C. albicans strains

CCCCCOc1ccc(-c2ccc(-c3ccc(C(=O)N[C@H]4C[C@@H](O)[C@@H](OCC[N+](C)(C)C)NC(=O)C5C(O)[C@@H](C)CN5C(=O)[C@H]([C@@H](C)O)NC(=O)[C@H]([C@H](O)[C@@H](O)c5ccc(O)cc5)NC(=O)[C@@H]5C[C@@H](O)CN5C(=O)C(C(C)O)NC4=O)cc3)cc2)cc1 (stereo partly drawn) [CD101] ({pTerphenylCO(4''-OnC5H11)}-[Orn(4R-OH,5R-OCH2CH2NMe3+)][ξT][Hyp][hTyr(3S-OH,4S-OH)]T[X1]; lactam 1-C)
plasma concentrations relative to MEC90 ([1]; 400 mg and 200 mg): above the MEC90 for A. fumigatus for 7 days | mean unbound plasma concentrations relative to MIC90 ([1]; Phase 1 subjects, single dose of 400 mg): above the MIC90 for C. albicans for seven days | average 24 h AUC (free drug) over a 7 day period ([1]; 200 mg dose): ~2200 ng·h/mL | free drug AUC0-168 ([1]; 200 mg dose): 15400 ng·h/mL | average 24 h AUC (free drug) over a 7 day period ([1]; 400 mg dose): approximately 4.3 mg*h/L | free drug AUC0-168 ([1]; 400 mg dose): 30200 ng·h/mL | MIC [2]: 0.03 µg/mL | 1 log kill 24 h Ave Free drug AUC/MIC ([3]; 98-17): 3.92 | 1 log kill free drug AUC0-168 h/MIC ([3]; 98-17): 27.47 | 1 log kill total drug AUC0-168 h/MIC ([3]; 98-17): 3433.40 | Stasis 24 h Ave free drug AUC/MIC ([3]; 98-17): 2.19 | Stasis free drug AUC0-168 h/MIC ([3]; 98-17): 15.35 | Stasis total drug AUC0-168 h/MIC ([3]; 98-17): 1918.43 | 1 log kill dose ([3]; 98-17, single IP dose, 168 h): 2.73 mg/kg | Static dose ([3]; 98-17, single IP dose, 168 h): 1.34 mg/kg | 1 log kill 24 h Ave Free drug AUC/MIC ([3]; 98-210): 6.72 | 1 log kill free drug AUC0-168 h/MIC ([3]; 98-210): 47.01 | 1 log kill total drug AUC0-168 h/MIC ([3]; 98-210): 5875.95 | Stasis 24 h Ave free drug AUC/MIC ([3]; 98-210): 3.70 | Stasis free drug AUC0-168 h/MIC ([3]; 98-210): 25.93 | Stasis total drug AUC0-168 h/MIC ([3]; 98-210): 3241.65 | 1 log kill dose ([3]; 98-210, single IP dose, 168 h): 2.28 mg/kg | Static dose ([3]; 98-210, single IP dose, 168 h): 1.06 mg/kg | 1 log kill 24 h Ave Free drug AUC/MIC [3]; 580: 3.05 | 1 log kill free drug AUC0-168 h/MIC [3]; 580: 21.34 | 1 log kill total drug AUC0-168 h/MIC [3]; 580: 2667.21 | Stasis 24 h Ave free drug AUC/MIC [3]; 580: 2.02 | Stasis free drug AUC0-168 h/MIC [3]; 580: 14.15 | Stasis total drug AUC0-168 h/MIC [3]; 580: 1769.30 | 1 log kill dose ([3]; 580, single IP dose, 168 h): 2.03 mg/kg | Static dose ([3]; 580, single IP dose, 168 h): 1.20 mg/kg | 1 log kill 24 h Ave Free drug AUC/MIC ([3]; K-1): 6.86 | 1 log kill free drug AUC0-168 h/MIC ([3]; K-1): 48.05 | 1 log kill total drug AUC0-168 h/MIC ([3]; K-1): 6005.95 | Stasis 24 h Ave free drug AUC/MIC ([3]; K-1): 3.65 | Stasis free drug AUC0-168 h/MIC ([3]; K-1): 25.58 | Stasis total drug AUC0-168 h/MIC ([3]; K-1): 3197.16 | 1 log kill dose ([3]; K-1, single IP dose, 168 h): 5.26 mg/kg | Static dose ([3]; K-1, single IP dose, 168 h): 2.52 mg/kg | 1 log kill 24 h Ave Free drug AUC/MIC ([3]; Mean of 4 C. albicans strains): 5.14 | 1 log kill dose ([3]; Mean of 4 C. albicans strains): 3.08 mg/kg | 1 log kill free drug AUC0-168 h/MIC ([3]; Mean of 4 C. albicans strains): 35.97 | 1 log kill total drug AUC0-168 h/MIC ([3]; Mean of 4 C. albicans strains): 4495.63 | Stasis 24 h Ave free drug AUC/MIC ([3]; Mean of 4 C. albicans strains): 2.89 | Stasis free drug AUC0-168 h/MIC ([3]; Mean of 4 C. albicans strains): 20.25 | Stasis total drug AUC0-168 h/MIC ([3]; Mean of 4 C. albicans strains): 2531.64 | Static dose ([3]; Mean of 4 C. albicans strains): 1.53 mg/kg | 1 log kill 24 h Ave Free drug AUC/MIC [3, 4]: 5.32 | 1 log kill dose [3, 4]: 2.51 mg/kg | 1 log kill free drug AUC0-168 h/MIC [3, 4]: 37.24 | 1 log kill total drug AUC0-168 h/MIC [3, 4]: 4654.68 | Stasis 24 h Ave free drug AUC/MIC [3, 4]: 2.92 | Stasis free drug AUC0-168 h/MIC [3, 4]: 20.5 and 20.46 | Stasis total drug AUC0-168 h/MIC [3, 4]: 2557.79 | Static dose [3, 4]: 1.27 mg/kg | kill at high doses ([3]; a number of strains, kidney burden, 168 h): > 2 log10

From US20240076347A1, “METHODS FOR PREVENTING FUNGAL INFECTIONS” (Cidara Therapeutics, Inc., priority 2016, published 2024)
